Laboratory results reported in patent publication US7968097B2, “Identification of Hla-A2-presented T-cell epitopes derived from the oncofoetal antigen-immature laminin receptor protein and uses thereof” (Immatics Biotechnologies GmbH, priority 2005, dated 2011).
Entries after “also recorded” stand apart in the source; their conditions may differ.

System: PBMC of HLA-A*02 positive healthy donors
Experiment: IFN-γ ELISPOT, healthy donors
Conditions: peripheral blood samples of healthy donors, IFN-γ ELISPOT
Procedure: To determine the frequency of OFA/iLR peptide-specific T cells in patients, ELISPOT-assays were performed using the Interferon-γ-ELISPOT-Kit (Becton Dickinson, Heidelberg, Germany) according to manufacturer's instructions.
Prior to analysis, T cells from patients and healthy donors had been kept in culture for seven days in the presence of Interleukin-2 (IL microgram/10^6 PBMC/milliliter).

Sequence	CTL / spontaneous T cell responses against peptide in healthy individuals
LLAARAIVAI (listed as Homo sapiens) [ILR1]	no spontaneous T cell responses; also recorded: low numbers of CTL
ALCNTDSPL (listed as Homo sapiens) [ILR2]	no spontaneous T cell responses; also recorded: low numbers of CTL
